Measured values from patent publication US11578077B2, “Spiro-oxazolones” (Hoffmann-La Roche Inc., priority 2013, dated 2023).

Target: human V1a receptor (Homo sapiens (Human), UniProt P37288)
Assay: human V1a receptor binding studies (3H-Vasopressin, SPA beads)
Conditions: membranes of HEK293 cells transiently transfected with human V1a receptor, Ki by Cheng-Prusoff
Method: The human V1a receptor was cloned by RT-PCR from total human liver RNA. The coding sequence was subcloned in an expression vector after sequencing to confirm the identity of the amplified sequence. […] Cell membranes were prepared from HEK293 cells transiently transfected with the expression vector and grown in 20 liter fermenters with the following protocol.
50 g of cells are re-suspended in 30 ml freshly prepared ice cold Lysis buffer ([…] HEPES. 1 mM EDTA, 10 mM MgCl2 adjusted to pH=7.4+complete cocktail of protease inhibitor (Roche Diagnostics)). Homogenized with Polytron for 1 min and sonicated on ice for 2×2 minutes at 80% intensity (Vibracell sonicator). The preparation is centrifuged 20 min at 500 g at 4° C., the pellet is discarded and the supernatant centrifuged 1 hour at 43'000 g at 4° C. (19'000 rpm). The pellet is re-suspended in 12.5 ml Lysis buffer+12.5 ml Sucrose 20% and homogenized using a Polytron for 1-2 min. The protein concentration is determined by the Bradford method and aliquots are stored at −80° C. until use. For binding studies 60 mg Yttrium silicate SPA beads (Amersham) are mixed with an aliquot of membrane in binding buffer (50 mM Tris, 120 mM NaCl, 5 mM KCl, 2 mM CaCl2, 10 mM MgCl) for 15 minutes with mixing. 50 μl of bead/membrane mixture is then added to each well of a 96 well plate, followed by […] of 4 nM 3H-Vasopressin (American Radiolabeled Chemicals). For total binding measurement 100 μl of binding buffer are added to the respective wells, for non-specific binding 100 μl of […] cold vasopressin and for compound testing 100 μl of a serial dilution of each compound in 2% DMSO. The plate is incubated 1 h at room temperature, centrifuged 1 min at 1000 g and counted on a Packard Top-Count. Non-specific binding counts are subtracted from each well and data is normalized to the maximum specific binding set at 100%. To calculate an IC 50 the curve is fitted using a non-linear regression model (XLfit) and the Ki is calculated using the Cheng-Prussoff equation.

human V1a receptor, sequence (P37288 whole entry): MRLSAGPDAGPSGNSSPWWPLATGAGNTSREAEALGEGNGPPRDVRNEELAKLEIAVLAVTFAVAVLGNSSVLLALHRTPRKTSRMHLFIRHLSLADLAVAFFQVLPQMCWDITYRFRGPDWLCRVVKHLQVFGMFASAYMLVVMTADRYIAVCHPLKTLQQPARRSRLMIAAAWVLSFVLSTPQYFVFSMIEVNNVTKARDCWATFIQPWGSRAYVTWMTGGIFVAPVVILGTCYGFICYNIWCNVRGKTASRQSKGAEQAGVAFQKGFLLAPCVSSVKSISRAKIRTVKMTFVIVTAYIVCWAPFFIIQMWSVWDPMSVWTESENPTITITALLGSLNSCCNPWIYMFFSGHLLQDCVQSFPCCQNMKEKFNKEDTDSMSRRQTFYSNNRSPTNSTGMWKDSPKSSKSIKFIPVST

Row | Structure (SMILES) | pKi hV1a
1 | Cc1cc2c(cc1C)CC1(C2)OC(N2CCC3(CC2)OC(=O)c2ccccc23)=NC1=O [Example 26, 1′-(5,6-dimethyl-4′-oxo-1,3-dihydro-4′H-spiro[indene-2,5′-[1,3]oxazol)-2′-yl)-3H-spiro[2-benzofuran-1,4′-piperidin]-3-one] | 6.4
2 | Cc1ccc2c(c1)CC1(C2)OC(N2CCC3(CC2)OCc2ccccc23)=NC1=O (stereo not drawn) [Example 21, 5-methyl-2′-(1′H,3H-spiro[2-benzofuran-1,4′-piperidin]-1′-yl)-1,3-dihydro-4′H-spiro[indene-2,5′-[1,3]oxazol]-4′-one] | 9.1
3 | CC1(C)OC2(CCN(C3=NC(=O)C4(Cc5ccccc5C4)O3)CC2)c2ccccc21 [Example 3, 2′-(3,3-dimethyl-1′H,3H-spiro[2-benzofuran-1,4′-piperidin]-1′-yl)-1,3-dihydro-4′H-spiro[indene-2,5′-[1,3]oxazol]-4′-one] | 9.3
4 | Cc1ccc2c(n1)C(=O)OC21CCN(C2=NC(=O)C3(Cc4ccccc4C3)O2)CC1 [Example 49, 2-methyl-1′-(4′-oxo-1,3-dihydro-4′H-spiro[indene-2,5′-[1,3]oxazol]-2′-yl)-7H-spiro[furo[3,4-b]pyridine-5,4′-piperidin]-7-one] | 7.0
5 | O=C1N=C(N2CCC3(CC2)OCc2ccccc23)OC12Cc1cccnc1C2 (stereo not drawn) [Example 56, 2′-(1′H,3H-spiro[2-benzofuran-1,4′-piperidin]-1′-yl)-5,7-dihydro-4′H-spiro[cyclopenta[b]pyridine-6,5′-[1,3]oxazol]-4′-one] | 8.2
6 | O=C1N=C(N2CCC3(CC2)OCc2ccccc23)O[C@]12CCc1ccccc12 [Example 19, (−)-2′-(1H,3H-spiro[2-benzofuran-1,4′-piperidin]-1′-yl)-2,3-dihydro-4′H-spiro[indene-1,5′-[1,3]oxazol]-4′-one] | 7.6
7 | CC1(C)OC2(CCN(C3=NC(=O)C4(Cc5cccc(O)c5C4)O3)CC2)c2cccnc21 (stereo not drawn) [Example 69, 2′-(7,7-dimethyl-1′H,7H-spiro[furo[3,4-b]pyridine-5,4′-piperidin]-1′-yl)-4-hydroxy-1,3-dihydro-4′H-spiro[indene-2,5′-[1,3]oxazol]-4′-one] | 9.3
8 | O=C1OC2(CCN(C3=NC(=O)C4(Cc5cc(O)c(O)cc5C4)O3)CC2)c2ccccc21 [Example 33, 1′-(5,6-dihydroxy-4′-oxo-1,3-dihydro-4′H-spiro[indene-2,5′-[1,3]oxazol]-2′-yl)-3H-spiro[2-benzofuran-1,4′-piperidin]-3-one] | 6.7
9 | CC1(C)OC2(CCN(C3=NC(=O)C4(Cc5ccccc5C4)O3)CC2)c2ncccc21 [Example 38, 2′-(5,5-dimethyl-1′H,5H-spiro[furo[3,4-b]pyridine-7,4′-piperidin]-1′-yl)-1,3-dihydro-4′H-spiro[indene-2,5′-[1,3]oxazol]-4′-one] | 9.2
